Reference: patent US20090054392A1, “NAPHTHYLPYRIMIDINE, NAPHTHYLPYRAZINE AND NAPHTHYLPYRIDAZINE ANALOGS AND THEIR USE AS AGONISTS OF THE WNT-BETA-CATENIN CELLULAR MESSAGING SYSTEM” (Wyeth, priority 2007, published 2009)
Like-named read-outs stand apart in the source and are kept apart here.

Test system: Dkk1-LRP5-TCF-Luciferase
Assay: Functional Dkk1-LRP5-TCF-Luciferase Assay in U2OS Cells
Conditions: for fold induction at 20 µM: read-out: C = TCF ACTIVITY/DMSO CONTROL Fold induction @ 20.0 uM, 20.0 uM compound; for A = MAX FOLD Induction/DMSO CONTROL: maximum fold induction over DMSO control
[1] = Homo sapiens, U2OS, read-out: B = TCF ACTIVITY/DMSO CONTROL Fold induction @ 2.0 uM, 2.0 uM compound

SMILES	fold induction at 2 µM [1]	fold induction at 20 µM (Homo sapiens, U2OS)	A = MAX FOLD Induction/DMSO CONTROL [fold]	also measured
c1ccc2cc(-c3ccnc(N4CC[C@@H](N5CCN6CCCCC6C5)C4)n3)ccc2c1 (stereo partly drawn) [2-{(3R)-1-[4-(2-naphthyl)pyrimidin-2-yl]pyrrolidin-3-yl}octahydro-2H-pyrido[1,2-a]pyrazine]	1.3			
CN1CCN(C[C@H]2CCN(c3nccc(-c4ccc5ccccc5c4)n3)C2)CC1 [2-{(3R)-3-[(4-methylpiperazin-1-yl)methyl]pyrrolidin-1-yl}-4-(2-naphthyl)pyrimidine]	2.5	0.01	2.180	
CN1CCN(C[C@@H]2CCN(c3nccc(-c4ccc5ccccc5c4)n3)C2)CC1 [2-{(3S)-3-[(4-methylpiperazin-1-yl)methyl]pyrrolidin-1-yl}-4-(2-naphthyl)pyrimidine]	1.8			
CN(CCCO)[C@@H]1CCN(c2nccc(-c3ccc4ccccc4c3)n2)C1 [3-(methyl{(3R)-1-[4-(2-naphthyl)pyrimidin-2-yl]pyrrolidin-3-yl}amino)propan-1-ol]		3.3		
CN(CCCO)[C@H]1CCN(c2nccc(-c3ccc4ccccc4c3)n2)C1 [3-(methyl{(3S)-1-[4-(2-naphthyl)pyrimidin-2-yl]pyrrolidin-3-yl}amino)propan-1-ol]	1.1			
NC(=O)N1CC(CNc2nccc(-c3ccc4ccccc4c3)n2)C1 [3-({[4-(2-naphthyl)pyrimidin-2-yl]amino}methyl)azetidine-1-carboxamide]	1.09	1.58		
c1ccc(N2CCN(c3nccc(-c4ccc5ccccc5c4)n3)CC2)nc1 [4-(2-naphthyl)-2-(4-pyridin-2-ylpiperazin-1-yl)pyrimidine]	1.8			
c1cnc(N2CCN(c3nccc(-c4ccc5ccccc5c4)n3)CC2)nc1 [4-(2-naphthyl)-2-(4-pyrimidin-2-ylpiperazin-1-yl)pyrimidine]	1.02	1.24		
c1ccc2cc(-c3ccnc(N4CCC(CN5CCCCC5)C4)n3)ccc2c1 (stereo not shown) [4-(2-naphthyl)-2-[3-(piperidin-1-ylmethyl)pyrrolidin-1-yl]pyrimidine]	1.66	0.01		
c1ccc2cc(-c3ccnc(N4CCC(CN5CCCC5)C4)n3)ccc2c1 (stereo not shown) [4-(2-naphthyl)-2-[3-(pyrrolidin-1-ylmethyl)pyrrolidin-1-yl]pyrimidine]	1.87		7.000	EC50 (Homo sapiens, U2OS): 7.59 µM
CC(C1CCN(c2nccc(-c3ccc4ccccc4c3)n2)CC1)[N+](=O)[O-] (stereo not shown) [4-(2-naphthyl)-2-[4-(1-nitroethyl)piperidin-1-yl]pyrimidine]		1.44		
O=[N+]([O-])CC1CCN(c2nccc(-c3ccc4ccccc4c3)n2)CC1 [4-(2-naphthyl)-2-[4-(nitromethyl)piperidin-1-yl]pyrimidine]	1.5	0.68		
c1ccc2cc(-c3ccnc(N4CCC(CN5CCNCC5)CC4)n3)ccc2c1 [4-(2-naphthyl)-2-[4-(piperazin-1-ylmethyl)piperidin-1-yl]pyrimidine]	5.17	0.01	2.510	
c1ccc2cc(-c3ccnc(N4CCC(CN5CCCCC5)CC4)n3)ccc2c1 [4-(2-naphthyl)-2-[4-(piperidin-1-ylmethyl)piperidin-1-yl]pyrimidine]	1.09	2.8		EC50: 8.59 µM; C = TCF ACTIVITY/DMSO CONTROL Fold induction @ 20.0 uM (20.0 uM compound, 20 µM): 1.687 fold; EC50 (Homo sapiens, U2OS): 8 µM
c1ccc2cc(-c3ccnc(N4CCC(CN5CCCC5)CC4)n3)ccc2c1 [4-(2-naphthyl)-2-[4-(pyrrolidin-1-ylmethyl)piperidin-1-yl]pyrimidine]	2.07			EC50: 3.18 µM; EC50 (Homo sapiens, U2OS): 3.5 µM
O=C([C@H]1CCCN1c1nccc(-c2ccc3ccccc3c2)n1)N1CCCCC1 [4-(2-naphthyl)-2-[(2R)-2-(piperidin-1-ylcarbonyl)pyrrolidin-1-yl]pyrimidine]	1.01			
O=C([C@H]1CCCN1c1nccc(-c2ccc3ccccc3c2)n1)N1CCCC1 [4-(2-naphthyl)-2-[(2R)-2-(pyrrolidin-1-ylcarbonyl)pyrrolidin-1-yl]pyrimidine]	1.05	1.1		
O=C([C@@H]1CCCN1c1nccc(-c2ccc3ccccc3c2)n1)N1CCCCC1 [4-(2-naphthyl)-2-[(2S)-2-(piperidin-1-ylcarbonyl)pyrrolidin-1-yl]pyrimidine]	1.91			
O=C([C@@H]1CCCN1c1nccc(-c2ccc3ccccc3c2)n1)N1CCCC1 [4-(2-naphthyl)-2-[(2S)-2-(pyrrolidin-1-ylcarbonyl)pyrrolidin-1-yl]pyrimidine]	0.87	1.07		
c1ccc2cc(-c3ccnc(N4CC[C@H](CN5CCCCC5)C4)n3)ccc2c1 [4-(2-naphthyl)-2-[(3R)-3-(piperidin-1-ylmethyl)pyrrolidin-1-yl]pyrimidine]	1.21	1.34		

SMILES	fold induction at 2 µM [1]	fold induction at 20 µM (Homo sapiens, U2OS)	A = MAX FOLD Induction/DMSO CONTROL [fold]	also measured
c1ccc2cc(-c3ccnc(N4CC[C@H](CN5CCCC5)C4)n3)ccc2c1 [4-(2-naphthyl)-2-[(3R)-3-(pyrrolidin-1-ylmethyl)pyrrolidin-1-yl]pyrimidine]	1.5	6.07	6.053	EC50 (Homo sapiens, U2OS): 7.67 µM
c1ccc2cc(-c3ccnc(N4CC[C@@H](N5CCNCC5)C4)n3)ccc2c1 [4-(2-naphthyl)-2-[(3R)-3-piperazin-1-ylpyrrolidin-1-yl]pyrimidine]	3.44		2.510	
c1ccc2cc(-c3ccnc(N4CC[C@@H](N5CCCCC5)C4)n3)ccc2c1 [4-(2-naphthyl)-2-[(3R)-3-piperidin-1-ylpyrrolidin-1-yl]pyrimidine]	1.29	0.06		
c1ccc2cc(-c3ccnc(N4CC[C@@H](CN5CCCCC5)C4)n3)ccc2c1 [4-(2-naphthyl)-2-[(3S)-3-(piperidin-1-ylmethyl)pyrrolidin-1-yl]pyrimidine]	1.34	1.06		
c1ccc2cc(-c3ccnc(N4CC[C@@H](CN5CCCC5)C4)n3)ccc2c1 [4-(2-naphthyl)-2-[(3S)-3-(pyrrolidin-1-ylmethyl)pyrrolidin-1-yl]pyrimidine]	1.9	5.18	4.050	
c1ccc2cc(-c3ccnc(N4CC[C@H](N5CCNCC5)C4)n3)ccc2c1 [4-(2-naphthyl)-2-[(3S)-3-piperazin-1-ylpyrrolidin-1-yl]pyrimidine]	6.16		7.520	EC50 (Homo sapiens, U2OS): 1.1 µM
c1ccc2cc(-c3ccnc(N4CC[C@H](N5CCCCC5)C4)n3)ccc2c1 [4-(2-naphthyl)-2-[(3S)-3-piperidin-1-ylpyrrolidin-1-yl]pyrimidine]	1.65			
c1ccc2cc(-c3ccnc(N4CCNCC4)n3)ccc2c1 [4-(2-naphthyl)-2-piperazin-1-ylpyrimidine]			2.050	fold induction at 2 µM (Homo sapiens, U2OS, read-out: B = TCF ACTIVITY/DMSO CONTROL Fold induction @ 2.0 uM): 2.64
c1ccc2cc(-c3ccnc(N4CCCCC4)n3)ccc2c1 [4-(2-naphthyl)-2-piperidin-1-ylpyrimidine]	0.92	1.79		
c1ccc2cc(-c3ccnc(N4CCCC4)n3)ccc2c1 [4-(2-naphthyl)-2-pyrrolidin-1-ylpyrimidine]	1.97			
c1ccc(CCNc2nccc(-c3ccc4ccccc4c3)n2)cc1 [4-(2-naphthyl)-N-(2-phenylethyl)pyrimidin-2-amine]	1.91			
c1cncc(CCNc2nccc(-c3ccc4ccccc4c3)n2)c1 [4-(2-naphthyl)-N-(2-pyridin-3-ylethyl)pyrimidin-2-amine]	1.15	1.04		
c1ccc2cc(-c3ccnc(NCCc4ccncc4)n3)ccc2c1 [4-(2-naphthyl)-N-(2-pyridin-4-ylethyl)pyrimidin-2-amine]	1.96	0.375	2.765	EC50 (Homo sapiens, U2OS): 0.98 µM
c1ccc2cc(-c3ccnc(NCC4CCNCC4)n3)ccc2c1 [4-(2-naphthyl)-N-(piperidin-4-ylmethyl)pyrimidin-2-amine]	1.33	1.36	6.120	
c1ccc(CNc2nccc(-c3ccc4ccccc4c3)n2)nc1 [4-(2-naphthyl)-N-(pyridin-2-ylmethyl)pyrimidin-2-amine]	1.72	1.55	2.690	
c1cncc(CNc2nccc(-c3ccc4ccccc4c3)n2)c1 [4-(2-naphthyl)-N-(pyridin-3-ylmethyl)pyrimidin-2-amine]	1.55	1.41	1.960	EC50 (Homo sapiens, U2OS): 5.9 µM
c1ccc2cc(-c3ccnc(NCc4ccncc4)n3)ccc2c1 [4-(2-naphthyl)-N-(pyridin-4-ylmethyl)pyrimidin-2-amine]	1.41	1.7	2.070	EC50 (Homo sapiens, U2OS): 2.42 µM
O=C(N1CCCC1)N1CCC(Nc2nccc(-c3ccc4ccccc4c3)n2)CC1 [4-(2-naphthyl)-N-[1-(pyrrolidin-1-ylcarbonyl)piperidin-4-yl]pyrimidin-2-amine]	1.06	0.96		
c1ccc2cc(-c3ccnc(N[C@@H]4CCNC4)n3)ccc2c1 [4-(2-naphthyl)-N-[(3R)-pyrrolidin-3-yl]pyrimidin-2-amine]	1.76	3.98	6.560	EC50 (Homo sapiens, U2OS): 9.23 µM
c1ccc2cc(-c3ccnc(NC[C@@H]4CCNC4)n3)ccc2c1 [4-(2-naphthyl)-N-[(3R)-pyrrolidin-3-ylmethyl]pyrimidin-2-amine]		0.06	7.510	EC50 (Homo sapiens, U2OS): 3.88 µM
